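48-hour exposure; five concentrations; linearly interpolated endpoints. TGI is the concentration that stops growth completely.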
Assays:
Test in all cases: NCI anticancer screen, dose series, 48 h
ACHN renal = tested on: ACHN renal
DU-145 prostate = tested on: DU-145 prostate
HOP-92 NSCLC = tested on: HOP-92 NSCLC
M14 melanoma = tested on: M14 melanoma
MDA-N = tested on: MDA-N
NCI-H23 lung = tested on: NCI-H23 lung
NCI-H460 lung = tested on: NCI-H460 lung
OVCAR-4 ovarian = tested on: OVCAR-4 ovarian
SK-MEL-2 melanoma = tested on: SK-MEL-2 melanoma
SN12C renal = tested on: SN12C renal
SNB-19 CNS = tested on: SNB-19 CNS
U251 CNS = tested on: U251 CNS
UACC-62 melanoma = tested on: UACC-62 melanoma

Compound	TGI (ACHN renal) [µM]	TGI (DU-145 prostate) [µM]	TGI (HOP-92 NSCLC) [µM]	TGI (M14 melanoma) [µM]	TGI (MDA-N) [µM]	TGI (NCI-H23 lung) [µM]	TGI (NCI-H460 lung) [µM]	TGI (OVCAR-4 ovarian) [µM]	TGI (SK-MEL-2 melanoma) [µM]	TGI (SN12C renal) [µM]	TGI (SNB-19 CNS) [µM]	TGI (U251 CNS) [µM]	TGI (UACC-62 melanoma) [µM]
CC(=O)Oc1ccn2nc(C)c(Br)c2c1Br	31.4	> 100	36.7	34.7	32.6	34.8	53.1	30.6	> 67	> 57.8	> 100	> 100	37.5
Clc1ccc(OCc2nnc3sc(-c4ccc(-c5ccc(Cl)cc5Cl)o4)nn23)c(Cl)c1	45.8	66.8	37.4	76.5	71.3	54	55.2	> 100	32.1	38.9	56.6	37.5	> 100
Oc1cc(Cl)cc2cc(Br)cnc12	> 32.1	> 100	> 100	6	> 100	> 100	> 57.7	> 100		> 100	> 100	98.1	> 77.6
CCOC(OCC)C(CC)[Se]c1ccccc1[N+](=O)[O-] (stereo unspecified)	> 100	> 100	> 61.1	15.3	> 100	> 42.7	18.6	> 100	> 90.4	> 61.2	> 94.5	15.4	> 56.2
Oc1[nH]c2ccccc2c1N=NC1=NCCCCN1	> 100	> 100	> 100	> 100	> 100	> 100	> 100	> 100	> 100	> 100	> 100	> 100	> 100
C#CC(O)/C=C/CCCCCCC#CC/C=C\CC#CCCCCCC/C=C/C(O)C#C (stereo unspecified)	13.7	8.99	5.57	2.26	7.52	3.53	16.3	10.1	6.8	4.02	24.8	26	7.38
CC(C)(C)c1cc(-c2ccc(-c3cc(C(C)(C)C)c(O)c(C(C)(C)C)c3)cc2)cc(C(C)(C)C)c1O	> 100	> 100	> 100	> 100	> 100	> 100		> 100	> 100	> 100	> 100	> 100	> 100
COc1cc(/C=C2\N=C(c3ccccc3)N(C3Nc4cc5c(cc4S3)NC(N3C(=O)/C(=C/c4cc(OC)c(OC)c(OC)c4)N=C3c3ccccc3)S5)C2=O)cc(OC)c1OC (stereo unspecified)	> 100	> 100	> 100	> 100	> 100	> 100	> 100	> 100	> 100			> 100	
O=C1Oc2ccccc2C(=O)/C1=C/N1C(=O)/C(=C/c2ccc([N+](=O)[O-])cc2)SC1=S	34	> 100	5.71	65.6	46.7	55	57.8	> 100	82.4	51.6	79.1	> 100	> 100
Cc1nc2c(nc1C)-c1c(c3c(n1Cc1ccccc1)C(=O)CCC3)C(=O)C2=O		88.8	90.3	91.1	4.82	> 100	> 100	3.59	31.7		28.8		50.9
FC(F)(F)c1ccc2c(c1)nc(Cc1ccccc1)n2C[C@@H]1CCCN2CCCCC12 (stereo partly specified)	26.5	29.3	27.2	23	26.2	30.8	31.9	31.5	30.6	27	28.6	29.2	30.7
O=S(=O)(O)CCS	> 100	> 100	> 100	> 100	> 100	> 100	> 100	> 100	> 100	> 100	> 100	> 100	> 100
Cn1c(N2CCCC2)c(C=O)c(=O)n(C)c1=O	> 100	> 100	> 100	> 100	> 100	> 100	> 100	> 100	> 100	> 100	> 100	> 100	> 100
